In US8748376B2, “Stable formulations of peptides” (Novo Nordisk A/S, priority 2004, dated 2014):

Assay: Thioflavine T stress test of heat treated liraglutide preparations
Format: physicochemical
Method: The physical stability of the liraglutide preparations was evaluated by the use of a florescence method; the Thioflavine T-test where the histological thiazole dye Thioflavine T (ThT) was used as an indicator of fibril formation. By the use of Thioflavine T-test it was possible to determine the presence of fibrils in the different formulations. The method was based on the fluorescent characteristics of ThT.
ThT was used in a stress test applying the different formulations in microtiter plates with ThT at 35° C. and shaken with 350 rpm until the formulations were fibrillated. Graphs of the fluorescence intensity (FI) as a function of time (sec) were obtained.

Question: Which “physical stability, time of heat treatment” value (60 and 80° C., 120 minutes in comparison to 1 minute of heat treatment) does the source give for `CCCCCCCCCCCCCCCC(=O)N[C@@H](CCC(=O)NCCCC[C@H](NC(=O)[C@H](C)NC(=O)[C@H](C)NC(=O)[C@H](CCC(N)=O)NC(=O)CNC(=O)[C@H](CCC(=O)O)NC(=O)[C@H](CC(C)C)NC(=O)[C@H](Cc1ccc(O)cc1)NC(=O)[C@H](CO)NC(=O)[C@H](CO)NC(=O)[C@@H](NC(=O)[C@H](CC(=O)O)NC(=O)[C@H](CO)NC(=O)[C@@H](NC(=O)[C@H](Cc1ccccc1)NC(=O)[C@@H](NC(=O)CNC(=O)[C@H](CCC(=O)O)NC(=O)[C@H](C)NC(=O)[C@@H](N)Cc1cnc[nH]1)[C@@H](C)O)[C@@H](C)O)C(C)C)C(=O)N[C@@H](CCC(=O)O)C(=O)N[C@@H](Cc1ccccc1)C(=O)N[C@H](C(=O)N[C@@H](C)C(=O)N[C@@H](Cc1c[nH]c2ccccc12)C(=O)N[C@@H](CC(C)C)C(=O)N[C@H](C(=O)N[C@@H](CCCNC(=N)N)C(=O)NCC(=O)N[C@@H](CCCNC(=N)N)C(=O)NCC(=O)O)C(C)C)[C@@H](C)CC)C(=O)O` [liraglutide, Arg^34, Lys^26(N^ε-(γ-Glu(N^α-hexadecanoyl)))-GLP-1(7-37)] here?
Answer: improve the physical stability significantly

Question: What about the “physical stability by increasing the temperature of heat treatment” value (from 22 to 50-80° C. at pH 9-10) of the same molecule?
Answer: significantly improved

Question: And the “physical stability as temperature of heat treatment was increased” value (heat treatment 22 to 80° C.)?
Answer: significantly improved

Question: And the “physical stability, time of heat treatment” value (pH 9-10, all temperatures, 15 to 20 minutes compared to 1 minute of heat treatment)?
Answer: improve the physical stability significantly
